{"source": "patent US20220265817A1", "about": "“THERAPEUTIC COMPOSITIONS AND METHODS FOR TREATING HEPATITIS B” (priority 2017, published 2022)", "system": "HBV rcDNA in HepDE19 cells", "assay": "HepDE19 cell culture system, rcDNA quantitation using bDNA assay, MacSynergy II", "format": "cell-based, human hepatoma cell line", "conditions": "for AVERAGE % INHIBITION (rcDNA): 4 replicates, SIRNA-NP ng/mL by row: r8 25, r9 8.333, r10 2.778, r11 0.926, r12 0.309, r13 0; for ADDITIVE INHIBITION: expected from additive interaction, SIRNA-NP ng/mL by row: r30 25, r31 8.333, r32 2.778, r33 0.926, r34 0.309, r35 0", "protocol": "In vitro combination studies were conducted using the method of Prichard and Shipman (Prichard M N, and Shipman C Jr., Antiviral Research, 1990, 14 (4-5), 181-205; and Prichard M N, et. al., MacSynergy II). HepDE19 cell culture system is a HepG2 (human hepatocarcinoma) derived cell line that supports HBV DNA replication and cccDNA formation in a tetracycline (Tet)-regulated manner and produces HBV rcDNA and a detectable reporter molecule dependent on the production and maintenance of cccDNA (Guo et al 2007. J. Virol 81:12472-12484). HepDE19 (50,000 cells/well) were plated in 96 well collagen-coated tissue-culture treated microtiter plates in DMEM/F12 medium supplemented with 10% fetal bovine serum, 1% penicillin-streptomycin and 1 μg/ml tetracycline and incubated in a humidified incubator at 37° C. and 5% CO2 overnight. Next day, the cells were switched to fresh medium without tetracycline and incubated for 4 hrs at 37° C. and 5% CO2. […] The two inhibitors were tested both singly as well as in combinations in a checkerboard fashion such that each concentration of inhibitor A was combined with each concentration of inhibitor B to determine their combination effects on inhibition of rcDNA production. Following a 7 day-incubation of cells with compound combinations, the level of rcDNA present in the inhibitor-treated wells was measured using a Quantigene 2.0 bDNA assay kit (Affymetrix, Santa Clara, Calif.) with HBV specific custom probe set and manufacturers instructions. […] The RLU data from the single compound treated cells were analyzed using XL-Fit module in Microsoft Excel to determine EC50 values using a 4-parameter curve fitting algorithm. Concurrently, the effect of compounds on cell viability was assessed using replicate plates, plated at a density of 5,000 cells/well and incubated for 4 days, to determine the ATP content as a measure of cell viability using the cell-titer glo reagent (CTG; Promega Corporation, Madison, Wis.) as per manufacturer's instructions.\nIn vitro combination studies were conducted using the method of Prichard and Shipman (Prichard M N, Shipman C, Jr., Antiviral Res, 14, 181-205 (1990)). The HepDE19 cell line was developed as described in Guo et al. (Guo et al., J Virol, 81, 12472-12484 (2007)). It is a human hepatoma cell line stably transfected with the HBV genome, and which can express HBV pregenomic RNA and support HBV rcDNA (relaxed circular DNA) synthesis in a tetracycline-regulated manner. HepDE19 cells were plated in 96 well tissue-culture treated microtiter plates in DMEM/F12 medium supplemented with 10% fetal bovine serum+1% penicillin-streptomycin without tetracycline and incubated in a humidified incubator at 37° C. and 5% CO2 overnight. […] The two inhibitors were tested both singly as well as in combinations in a checkerboard fashion such that each concentration of inhibitor A was combined with each concentration of inhibitor B to determine their combination effects on inhibition of rcDNA production. Following a 48 hour-incubation, the level of rcDNA present in the inhibitor-treated wells was measured using a bDNA assay (Affymetrix) with HBV specific custom probe set and manufacturers instructions. […] Concurrently, the effect of inhibitor combinations on cell viability was assessed using replicate plates that were used to determine the ATP content as a measure of cell viability using the Cell-TiterGlo reagent (Promega) as per manufacturer's instructions.\nIn vitro combination studies were conducted using the method of Prichard and Shipman (1990) (Prichard M N, Shipman C, Jr. 1990. A three-dimensional model to analyze drug-drug interactions. Antiviral Res 14:181-205 AND Prichard M N. 1992. MacSynergy II, University of Michigan).", "data": [{"compound": "C=C1[C@H](CO)[C@@H](O)C[C@@H]1n1cnc2c(=O)[nH]c(N)nc21", "note": "[Entecavir]", "values": [{"measurement": "AVERAGE % INHIBITION (rcDNA)", "setting": "ETV 0.016 nM", "result": "−43.72", "unit": "%"}, {"measurement": "AVERAGE % INHIBITION (rcDNA)", "setting": "ETV 0.031 nM", "result": "−50.07", "unit": "%"}, {"measurement": "AVERAGE % INHIBITION (rcDNA)", "setting": "ETV 0.063 nM", "result": "−30.26", "unit": "%"}, {"measurement": "AVERAGE % INHIBITION (rcDNA)", "setting": "ETV 0.125 nM", "result": "−23.47", "unit": "%"}, {"measurement": "AVERAGE % INHIBITION (rcDNA)", "setting": "ETV 0.250 nM", "result": "−21.25", "unit": "%"}, {"measurement": "AVERAGE % INHIBITION (rcDNA)", "setting": "ETV 1.000 nM", "result": 41.71, "unit": "%"}, {"measurement": "AVERAGE % INHIBITION (rcDNA)", "setting": "ETV 2.000 nM", "result": 58.35, "unit": "%"}, {"measurement": "AVERAGE % INHIBITION (rcDNA)", "setting": "ETV 4.000 nM", "result": 69.99, "unit": "%"}, {"measurement": "EC50", "setting": "Hepatitis B virus, HepDE19, rcDNA by bDNA assay, ETV, read-out: Inhibitor B EC50", "result": 1.78, "unit": "nM"}, {"measurement": "ADDITIVE INHIBITION", "setting": "ETV 0.015625 nM", "result": "−43.72", "unit": "%"}, {"measurement": "ADDITIVE INHIBITION", "setting": "ETV 0.03125 nM", "result": "−50.07", "unit": "%"}, {"measurement": "ADDITIVE INHIBITION", "setting": "ETV 0.0625 nM", "result": "−30.26", "unit": "%"}, {"measurement": "ADDITIVE INHIBITION", "setting": "ETV 0.125 nM", "result": "−23.47", "unit": "%"}, {"measurement": "ADDITIVE INHIBITION", "setting": "ETV 0.25 nM", "result": "−21.25", "unit": "%"}, {"measurement": "ADDITIVE INHIBITION", "setting": "ETV 1 nM", "result": 41.71, "unit": "%"}, {"measurement": "ADDITIVE INHIBITION", "setting": "ETV 2 nM", "result": 58.35, "unit": "%"}, {"measurement": "ADDITIVE INHIBITION", "setting": "ETV 4 nM", "result": 69.99, "unit": "%"}]}]}
